# According to patent US12202835B2, “Substituted aromatic ring-linked dioxinoquinazolines and dioxinoquinolines as kinase inhibitors” (BEIJING SCITECH-MQ PHARMACEUTICALS LIMITED, priority 2018, dated 2025):
# Experiments:
# Type in all cases: biochemical
# TRKA kinase = TRKA kinase (Homo sapiens (Human), UniProt P04629); experiment: Assay of small molecular compounds for inhibiting the activity of TRKA kinase (LANCE TR-FRET)
# Method: The assay of small molecular compounds for inhibiting the activity of TRKA kinase is based on the LANCE TR-FRET technology of Perkin Elmer Inc., and the assay method is as follows: • 1. […] 2.5 μL of the gradient-diluted compounds were taken with a transfer pipette to a 384-well plate. • 3. Addition of enzyme: 5 μL of 2×TRKA kinase solution (with a concentration of 2 nM) was taken with a transfer pipette to the corresponding reaction well of the 384-well plate, mixed well and pre-reacted at room temperature for 5 minutes. • 4. 2.5 μL 4× Ultra ULight-labeled TK Peptide (with a concentration of 400 nM)/ATP (with a concentration of 40 μM) mixture was taken with a transfer pipette to the corresponding reaction well of the 384-well plate. • 5. Negative control: 2.5 μL/well 4× substrate/ATP mixture and 7.5 μL 1× Kinase Assay Buffer were added to the wells of the 384-well plate.
# (§1) Positive control: 2.5 μL/well 4× substrate/ATP mixture, 2.5 μL/well 1× Kinase Assay Buffer containing 4% DMSO, and 5 μL/well 2×TRKA kinase solution were added to the 384-well plate. The final concentration of DMSO in the reaction system was 1%. • 6. The mixture was mixed well and then centrifuged and reacted at room temperature in dark for 60 min. • 7. Termination of the enzymatic reaction: 5 μL of 4× stop solution was taken with a transfer pipette to the wells of the 384-well plate, mixed and then centrifuged, and reacted at room temperature for 5 min. • 8. Development of the reaction: 5 μL of 4× detection solution was taken with a transfer pipette to the wells of the 384-well plate for color development, and the mixture was mixed and then centrifuged and reacted at room temperature for 60 min. • 9. The 384-well plate was placed into the Envision plate reader and the signal was detected using the appropriate program.
# c-MET kinase = c-MET kinase (Homo sapiens (Human), UniProt P08581); experiment: Assay of small molecular compounds for inhibiting the activity of c-MET kinase (LANCE TR-FRET); conditions: read-out: CMET IC50
# Method: The assay is based on the LANCE TR-FRET technology of Perkin Elmer Inc., and the assay method is as follows: • 1. Dilution of compounds: a total of 11 concentrations were obtained using a 3-fold gradient dilution from the highest concentration of 2500 nM (the maximum final concentration of the drug used in this assay was 2500 nM, and the minimum final concentration was 0.042 nM). • 2. 2.5 μL of the gradient-diluted compounds were taken with a transfer pipette to a 384-well plate. • 3. Addition of enzyme: 5 μL of 2×c-MET kinase solution (with a concentration of 2 nM) was taken with a transfer pipette to the corresponding reaction well of the 384-well plate, mixed well and pre-reacted at room temperature for 5 minutes. • 4. 2.5 μL 4× Ultra ULight™-JAK-1 (Tyr1023) Peptide (with a concentration of 400 nM)/ATP (with a concentration of 40 μM) mixture was taken with a transfer pipette to the corresponding reaction well of the 384-well plate. • 5. Negative control: 2.5 μL/well 4× substrate/ATP mixture and 7.5 μL 1× Kinase Assay Buffer were added to the wells of the 384-well plate. • 6. Positive control: 2.5 μL/well 4× substrate/ATP mixture, 2.5 μL/well 1× Kinase Assay Buffer containing 16% DMSO, and 5 μL/well 2× c-MET kinase solution were added to the 384-well plate. The final concentration of DMSO in the reaction system was 4%. • 7. The mixture was mixed well and then centrifuged and reacted at room temperature in dark for 60 min. • 8. Termination of the enzymatic reaction: 5 μL of 4× stop solution was taken with a transfer pipette to the wells of the 384-well plate, mixed and then centrifuged, and reacted at room temperature for 5 min. • 9. Development of the reaction: 5 μL of 4× detection solution was taken with a transfer pipette to the wells of the 384-well plate for color development, and the mixture was mixed and then centrifuged and reacted at room temperature for 60 min. • 10. The 384-well plate was placed into the Envision plate reader and the signal was detected using the appropriate program. • 11. Analysis and processing of the raw data: • 12. The drug concentrations and the corresponding inhibition rates were input into GraphPad Prism5 for calculation, and the inhibition rate of the compounds were calculated as follows: inhibition rate (%)=(reading of positive well−reading of experimental well)/(reading of positive control well−reading of negative control well)×100%. Processing with GraphPad Prism5 software yielded the corresponding IC50 values (the concentration of the compound at which 50% of the highest inhibition of the enzyme is achieved).
# MER kinase = MER kinase (Homo sapiens (Human), UniProt Q12866); experiment: Assay of small molecular compounds for inhibiting the activity of MER kinase (LANCE TR-FRET)
# Method: The assay of small molecular compounds for inhibiting the activity of MER kinase is based on the LANCE TR-FRET technology of Perkin Elmer Inc., and the assay method is as follows: • 1. Dilution of compounds: a total of 11 concentrations were obtained using a 3-fold gradient dilution from the highest concentration of 2500 nM (the maximum final concentration of the drug used in this assay was 2500 nM, and the minimum final concentration was 0.042 nM). • 2. 2.5 μL of the gradient-diluted compounds were taken with a transfer pipette to a 384-well plate. • 3. Addition of enzyme: 5 μL of 2×MER kinase solution (with a concentration of 1 nM) was taken with a transfer pipette to the corresponding reaction well of the 384-well plate, mixed well and pre-reacted at room temperature for 5 minutes. • 4. 2.5 μL 4× ULight-labeled Ploy GT (with a concentration of 200 nM)/ATP (with a concentration of 20 μM) mixture was taken with a transfer pipette to the corresponding reaction well of the 384-well plate. • 5. Negative control: 2.5 μL/well 4× substrate/ATP mixture and 7.5 μL 1× Kinase Assay Buffer were added to the wells of the 384-well plate.
# as §1, with “2×MER” for “2×TRKA”, “program. • 10. Analysis and processing of the raw data:” for “program.”
# The drug concentrations and the corresponding inhibition rates were input into GraphPad Prism5 for calculation, and the inhibition rate of the compounds were calculated as follows: inhibition rate (%)=(reading of positive well−reading of experimental well)/(reading of positive control well−reading of negative control well)×100%. Processing with GraphPad Prism5 software yielded the corresponding IC50 values (the concentration of the compound at which 50% of the highest inhibition of the enzyme is achieved).
# Chain of MER kinase (Q12866 21-999): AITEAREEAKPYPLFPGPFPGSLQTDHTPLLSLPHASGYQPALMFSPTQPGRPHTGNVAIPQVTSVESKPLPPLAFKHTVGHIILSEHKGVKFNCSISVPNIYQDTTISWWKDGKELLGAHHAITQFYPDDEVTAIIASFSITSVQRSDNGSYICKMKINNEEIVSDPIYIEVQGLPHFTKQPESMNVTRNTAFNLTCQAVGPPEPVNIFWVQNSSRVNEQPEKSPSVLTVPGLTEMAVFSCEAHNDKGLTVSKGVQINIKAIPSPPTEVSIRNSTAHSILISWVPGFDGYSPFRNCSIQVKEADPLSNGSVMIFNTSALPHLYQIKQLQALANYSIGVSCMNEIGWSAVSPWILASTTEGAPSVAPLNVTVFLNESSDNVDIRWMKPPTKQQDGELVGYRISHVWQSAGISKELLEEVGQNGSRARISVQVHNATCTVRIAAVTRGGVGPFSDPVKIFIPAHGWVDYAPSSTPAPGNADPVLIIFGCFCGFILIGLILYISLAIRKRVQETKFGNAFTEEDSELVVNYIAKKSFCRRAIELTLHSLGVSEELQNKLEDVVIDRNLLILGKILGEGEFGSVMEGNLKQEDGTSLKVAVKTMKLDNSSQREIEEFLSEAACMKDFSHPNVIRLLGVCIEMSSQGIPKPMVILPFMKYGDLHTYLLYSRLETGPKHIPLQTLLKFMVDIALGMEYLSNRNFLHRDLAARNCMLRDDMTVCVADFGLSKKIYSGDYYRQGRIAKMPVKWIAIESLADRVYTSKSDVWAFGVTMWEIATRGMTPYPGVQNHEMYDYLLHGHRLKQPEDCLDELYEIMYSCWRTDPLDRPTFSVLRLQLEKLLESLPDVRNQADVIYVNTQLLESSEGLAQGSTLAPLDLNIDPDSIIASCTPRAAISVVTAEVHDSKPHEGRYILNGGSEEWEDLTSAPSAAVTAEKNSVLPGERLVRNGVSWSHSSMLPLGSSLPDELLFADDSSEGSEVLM
# Chain of TRKA kinase (P04629 33-796): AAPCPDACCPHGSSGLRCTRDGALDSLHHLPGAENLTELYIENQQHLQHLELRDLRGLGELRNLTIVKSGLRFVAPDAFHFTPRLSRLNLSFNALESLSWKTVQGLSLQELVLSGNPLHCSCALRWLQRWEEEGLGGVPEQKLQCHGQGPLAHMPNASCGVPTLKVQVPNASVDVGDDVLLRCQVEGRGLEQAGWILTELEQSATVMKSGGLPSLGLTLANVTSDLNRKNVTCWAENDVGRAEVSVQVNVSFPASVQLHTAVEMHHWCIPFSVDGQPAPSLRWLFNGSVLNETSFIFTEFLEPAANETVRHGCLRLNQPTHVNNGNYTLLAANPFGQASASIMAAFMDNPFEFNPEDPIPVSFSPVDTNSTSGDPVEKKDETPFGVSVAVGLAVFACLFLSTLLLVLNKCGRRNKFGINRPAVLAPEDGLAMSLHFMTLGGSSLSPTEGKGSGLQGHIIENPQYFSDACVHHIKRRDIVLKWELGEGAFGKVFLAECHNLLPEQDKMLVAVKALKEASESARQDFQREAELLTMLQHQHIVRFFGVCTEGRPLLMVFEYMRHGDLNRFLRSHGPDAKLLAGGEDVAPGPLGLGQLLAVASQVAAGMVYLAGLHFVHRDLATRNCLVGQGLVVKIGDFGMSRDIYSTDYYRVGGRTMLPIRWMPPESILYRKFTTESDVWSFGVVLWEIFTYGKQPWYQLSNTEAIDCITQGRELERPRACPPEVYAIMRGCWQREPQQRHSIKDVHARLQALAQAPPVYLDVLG
# Chain of c-MET kinase (P08581 25-1390): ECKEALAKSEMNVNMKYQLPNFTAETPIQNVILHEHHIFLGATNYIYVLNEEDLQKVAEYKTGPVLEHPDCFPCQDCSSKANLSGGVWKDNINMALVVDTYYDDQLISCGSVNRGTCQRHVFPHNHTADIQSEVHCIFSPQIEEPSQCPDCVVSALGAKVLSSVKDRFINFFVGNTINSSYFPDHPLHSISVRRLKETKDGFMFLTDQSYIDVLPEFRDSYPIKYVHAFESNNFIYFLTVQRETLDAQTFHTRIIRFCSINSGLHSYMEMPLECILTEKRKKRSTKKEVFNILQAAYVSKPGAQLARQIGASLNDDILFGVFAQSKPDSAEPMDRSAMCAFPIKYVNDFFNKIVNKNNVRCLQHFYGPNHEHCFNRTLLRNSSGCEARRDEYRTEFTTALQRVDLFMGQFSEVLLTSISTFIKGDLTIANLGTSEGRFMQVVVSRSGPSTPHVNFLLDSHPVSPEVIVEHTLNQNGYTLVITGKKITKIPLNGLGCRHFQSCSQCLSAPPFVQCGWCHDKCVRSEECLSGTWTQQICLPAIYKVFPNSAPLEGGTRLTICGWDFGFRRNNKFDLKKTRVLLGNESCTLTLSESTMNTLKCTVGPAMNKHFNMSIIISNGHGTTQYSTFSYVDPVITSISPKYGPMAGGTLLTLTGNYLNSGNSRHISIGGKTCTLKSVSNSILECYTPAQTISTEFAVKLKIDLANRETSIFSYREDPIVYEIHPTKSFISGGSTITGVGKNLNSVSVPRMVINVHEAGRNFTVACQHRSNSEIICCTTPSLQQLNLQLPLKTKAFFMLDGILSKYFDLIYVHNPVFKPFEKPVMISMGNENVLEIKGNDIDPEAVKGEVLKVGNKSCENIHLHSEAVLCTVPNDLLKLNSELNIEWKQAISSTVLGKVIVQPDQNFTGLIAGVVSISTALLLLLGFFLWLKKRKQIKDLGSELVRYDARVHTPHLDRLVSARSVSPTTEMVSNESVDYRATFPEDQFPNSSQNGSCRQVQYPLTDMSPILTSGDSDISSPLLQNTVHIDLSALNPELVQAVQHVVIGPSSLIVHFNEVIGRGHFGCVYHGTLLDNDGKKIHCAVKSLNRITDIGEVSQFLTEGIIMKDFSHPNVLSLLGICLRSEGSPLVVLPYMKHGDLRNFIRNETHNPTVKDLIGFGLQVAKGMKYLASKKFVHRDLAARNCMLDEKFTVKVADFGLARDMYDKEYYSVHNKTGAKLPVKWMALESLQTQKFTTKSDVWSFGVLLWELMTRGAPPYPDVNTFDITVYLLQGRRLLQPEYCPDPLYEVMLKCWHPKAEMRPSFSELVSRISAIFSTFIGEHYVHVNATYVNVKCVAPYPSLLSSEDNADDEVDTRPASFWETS
Compound,IC50 (TRKA kinase),IC50 (c-MET kinase),IC50 (MER kinase)
"CCOc1cn(-c2ccc(F)cc2C)nc1C(=O)Nc1ccc(Oc2ncnc3cc(OC)c4c(c23)OCCO4)c(F)c1 [Example 9, 1-(4-fluoro-2-methylphenyl)-N-(3-fluoro-4-((5-methoxy-2,3-dihydro-[1,4]dioxino[2,3-f]quinazolin-10-yl)oxy)phenyl)-4-ethoxy-1H-pyrazole-3-carboxamide]",–,50 to 500 nM,500 to 5000 nM
"Cc1cc(F)ccc1-n1ccc(C(=O)Nc2ccc(Oc3ncnc4cc(OCCCN5CCOCC5)c5c(c34)OCCO5)c(F)c2)n1 [Example 10, 1-(4-fluoro-2-methylphenyl)-N-(3-fluoro-4-((5-(3-morpholinopropoxy)-2,3-dihydro-[1,4]dioxino[2,3-f]quinazolin-10-yl)oxy)phenyl)-1H-pyrazole-3-carboxamide]",–,≤ 50 nM,50 to 500 nM
"CCn1cc(C(=O)Nc2ccc(Oc3ccnc4ccc5c(c34)OCCO5)c(F)c2)c(=O)n(-c2ccc(F)cc2)c1=O [Example 161, N-(4-((2,3-dihydro-[1,4]dioxino[2,3-f]quinolin-10-yl)oxy)-3-fluorophenyl)-3-(4-fluorophenyl)-1-ethyl-2,4-dioxo-1,2,3,4-tetrahydropyrimidine-5-carboxamide]",50 to 500 nM,–,–
"COc1cc2nccc(Oc3ccc(NC(=O)c4cn(C(C)C)c(=O)n(C5CCCCC5)c4=O)cc3F)c2c2c1OCCO2 [Example 157, N-(3-fluoro-4-((5-methoxy-2,3-dihydro-[1,4]dioxino[2,3-f]quinolin-10-yl)oxy)phenyl)-3-cyclohexyl-1-isopropyl-2,4-dioxo-1,2,3,4-tetrahydropyrimidine-5-carboxamide]",500 to 5000 nM,–,50 to 500 nM
"COc1ccn(-c2ccc(F)cc2)c(=O)c1C(=O)Nc1ccc(Oc2ccnc3ccc4c(c23)OCCO4)c(F)c1 [Example 167, N-(4-((2,3-dihydro-[1,4]dioxino[2,3-f]quinolin-10-yl)oxy)-3-fluorophenyl)-1-(4-fluorophenyl)-4-methoxy-2-oxo-1,2-dihydropyridine-3-carboxamide]",50 to 500 nM,≤ 50 nM,–
"CCOc1ccn(-c2ccc(F)cc2)c(=O)c1C(=O)Nc1ccc(Oc2ccnc3ccc4c(c23)OCCO4)c(F)c1 [Example 168, N-(4-((2,3-dihydro-[1,4]dioxino[2,3-f]quinolin-10-yl)oxy)-3-fluorophenyl)-1-(4-fluorophenyl)-4-ethoxy-2-oxo-1,2-dihydropyridine-3-carboxamide]",50 to 500 nM,–,–
"CCn1cc(C(=O)Nc2ccc(Oc3ccnc4ccc5c(c34)OCCO5)cc2F)c(=O)n(-c2ccc(F)cc2)c1=O [Example 163, N-(4-((2,3-dihydro-[1,4]dioxino[2,3-f]quinolin-10-yl)oxy)-2-fluorophenyl)-3-(4-fluorophenyl)-1-ethyl-2,4-dioxo-1,2,3,4-tetrahydropyrimidine-5-carboxamide]",50 to 500 nM,–,–
"O=C(Nc1ccc(Oc2ccnc3ccc4c(c23)OCCO4)cc1)c1cccn(-c2ccc(F)cc2)c1=O [Example 165, N-(4-((2,3-dihydro-[1,4]dioxino[2,3-f]quinolin-10-yl)oxy)phenyl)-1-(4-fluorophenyl)-2-oxo-1,2-dihydropyridine-3-carboxamide]",50 to 500 nM,≤ 50 nM,–

# The remaining lines, values ahead:
IC50 (TRKA kinase),IC50 (c-MET kinase),IC50 (MER kinase),Compound
< 50 nM,–,–,"CCn1cc(C(=O)Nc2cc(F)c(Oc3ccnc4ccc5c(c34)OCCO5)cc2Cl)c(=O)n(-c2ccc(F)cc2)c1=O [Example 174, N-(2-chloro-4-((2,3-dihydro-[1,4]dioxino[2,3-f]quinolin-10-yl)oxy)-5-fluorophenyl)-3-(4-fluorophenyl)-1-ethyl-2,4-dioxo-1,2,3,4-tetrahydropyrimidine-5-carboxamide]"
50 to 500 nM,–,–,"Cn1cc(C(=O)Nc2cc(F)c(Oc3ccnc4ccc5c(c34)OCCO5)cc2Cl)c(=O)n(-c2ccc(F)cc2)c1=O [Example 173, N-(2-chloro-4-((2,3-dihydro-[1,4]dioxino[2,3-f]quinolin-10-yl)oxy)-5-fluorophenyl)-3-(4-fluorophenyl)-1-methyl-2,4-dioxo-1,2,3,4-tetrahydropyrimidine-5-carboxamide]"
50 to 500 nM,–,–,"Cn1cc(C(=O)Nc2ccc(Oc3ccnc4ccc5c(c34)OCCO5)c(F)c2)c(=O)n(-c2ccc(F)cc2)c1=O [Example 160, N-(4-((2,3-dihydro-[1,4]dioxino[2,3-f]quinolin-10-yl)oxy)-3-fluorophenyl)-3-(4-fluorophenyl)-1-methyl-2,4-dioxo-1,2,3,4-tetrahydropyrimidine-5-carboxamide]"
50 to 500 nM,–,–,"CCn1cc(C(=O)Nc2cc(F)c(Oc3ccnc4ccc5c(c34)OCCO5)cc2C)c(=O)n(-c2ccc(F)cc2)c1=O [Example 176, N-(4-((2,3-dihydro-[1,4]dioxino[2,3-f]quinolin-10-yl)oxy)-5-fluoro-2-methylphenyl)-3-(4-fluorophenyl)-1-ethyl-2,4-dioxo-1,2,3,4-tetrahydropyrimidine-5-carboxamide]"
50 to 500 nM,≤ 50 nM,–,"CCOc1ccn(-c2ccc(F)cc2)c(=O)c1C(=O)Nc1ccc(Oc2ccnc3ccc4c(c23)OCCO4)cc1 [Example 164, N-(4-((2,3-dihydro-[1,4]dioxino[2,3-f]quinolin-10-yl)oxy)phenyl)-4-ethoxy-1-(4-fluorophenyl)-2-oxo-1,2-dihydropyridine-3-carboxamide]"
50 to 500 nM,50 to 500 nM,–,"COc1ccn(-c2ccc(F)cc2)c(=O)c1C(=O)Nc1ccc(Oc2ccnc3ccc4c(c23)OCCO4)cc1 [Example 166, N-(4-((2,3-dihydro-[1,4]dioxino[2,3-f]quinolin-10-yl)oxy)phenyl)-4-methoxy-1-(4-fluorophenyl)-2-oxo-1,2-dihydropyridine-3-carboxamide]"
